Assays:
MDA cell lines = system: MDA cell lines; set-up: method as in ref 10 = [10]; 10 Jiang X , Sun Y , Yao J , et al Core scaffold‐inspired concise synthesis of chiral spirooxindole‐pyranopyrimidines with broad‐spectrum anticancer potency . Adv Synth Catal 2012; 354 : 917 – 25 .; conditions: read-out: IC50, cytotoxicity against MDA cell lines; cited from earlier work
[1] = system: MDA-MB-231 cancer cell line; conditions: TNBC; read-out: IC50, cytotoxic activity MDA-MB-231; cited from earlier work
MCF-7 = system: MCF-7; set-up: method as in PMID 24747063; conditions: ordinary breast cancer; read-out: IC50, cytotoxic activity MCF-7; cited from earlier work
tsFT210 cells = system: tsFT210 cells; set-up: method as in ref 7 = [7]; 7 Cui C-B , Kakeya H , Osada H. Novel mammalian cell cycle inhibitors, spirotryprostatins A and B, produced by Aspergillus fumigatus , which inhibit mammalian cell cycle at G2/M phase . Tetrahedron 19; conditions: read-out: IC50, inhibition of cell cycle progression at G2/M phase; cited from earlier work
MDA-MB-231 cells [2] = test: Annexin V-FITC apoptosis assay; format: cell-based; conditions: MDA-MB-231, 24 h
Description: Phosphatidylserine externalization was measured using Annexin V-FITC/PI apoptosis detection kit (BD Biosciences, San Jose, CA) according to the manufacturer's instructions, as reported earlier. MDA-MB-231cells were treated with 6e at defined concentrations for 24 h.
Externalization of the phospholipid phosphatidylserine at the cell membrane is a one of the well-recognized hallmarks of cells going into apoptosis[17]^,[29].

Bcl-2 = Bcl-2 level in MDA-MB-231 cells (ELISA); format: cell-based; conditions: MDA-MB-231 cells treated with compound at its IC50 concentration
Description: (§1) The levels of the apoptotic markers (Bax, caspase-3) as well as the anti-apoptotic marker (Bcl-2) were assessed using ELISA colorimetric kits per the manufacturer’s protocol and referring to reported instructions[21]^,[22].
(§2) Bcl-2 family comprises a group of crucial regulatory factors in apoptosis that finely tune the apoptotic switch on/off mechanism. Based on their functional and structural criteria, the members are divided into two major classes; group I proteins that are anti-apoptotic and group II proteins that are apoptotic. Group I anti-apoptotic proteins exert their function by inhibiting group II apoptotic proteins through simply binding to them. Group I proteins bind selectively to the active conformations of group II proteins to prevent them from being inserted into the mitochondria and thus cease the release of pro-apoptotic factors such as cytochrome c, ultimately aborting apoptosis. Thus, the inhibition of group I proteins and/or the activation of group II proteins can successfully induce apoptosis.

EGFR = biological target: T1, EGFR (Homo sapiens, UniProt P00533); test: EGFR kinase ELISA assay; format: biochemical; conditions: colorimetric ELISA, mean ± SD of three separate experiments
T1 construct: purchased BPS Biosciences 40321
Description: Percent inhibition was calculated by the comparison of compounds treated to control incubations.
Erlotinib, a clinically used EGFR inhibitor, was taken as the reference drug.

MDA-MB-231 cells [3] = test: Cell cycle analysis (DNA flow cytometry)
Description: Then cells were washed twice with ice-cold phosphate buffered saline (PBS). Subsequently, the treated cells were collected by centrifugation, fixed in ice-cold 70% (v/v) ethanol, washed with PBS, re-suspended with 0.1 mg/mL RNase, stained with 40 mg/mL PI, and analyzed by flow cytometry using FACS Calibur (Becton Dickinson, BD, USA). The cell cycle distributions were calculated using CellQuest software (Becton Dickinson).

Bax = Bax level in MDA-MB-231 cells (ELISA); format: cell-based; conditions: MDA-MB-231 cells treated with compound at its IC50 concentration
Description: as §1, §2

WI-38 cells = test: In vitro cytotoxic activity, WI-38 cells (MTT); format: cell-based, human; conditions: Homo sapiens, WI-38, read-out: IC50 (µM) WI-38
Description: WI-38 cells ([…]), were obtained from American Type Culture Collection. The cells were propagated in DMEM supplemented with 10% heat-inactivated FBS (Hyclone), 10 μg/ml of insulin (Sigma), and 1% penicillin-streptomycin. All of the other chemicals and reagents were from Sigma, or Invitrogen. Cytotoxicity was determined using MTT assay following a reported procedure.

caspase-3 = test: Active caspase-3 level in MDA-MB-231 cells (ELISA); format: cell-based; conditions: MDA-MB-231 cells treated with compound at its IC50 concentration
Description: as §1
Caspases, a family of cysteineaspartic proteases, are the crucial apoptosis mediators that provide essential links in cell regulatory networks controlling cell death. Caspase-3 is the key executioner caspase which modifies proteins ultimately responsible for apoptosis.

MDA-MB-231 cells [4] = test: In vitro anti-proliferative activity assay (MTT); format: cell-based; conditions: Homo sapiens, 48 h incubation
Description: Cells lines were maintained as monolayers in Dulbecco’s Modified Eagle’s Medium (DMEM) supplemented with 10% FBS, 2 mM L-glutamine, 100 U/ml penicillin and 100 µg/ml streptomycin sulfate. Cells were sub-cultured with trypsine/EDTA solution, counted with haemocytometer and plated onto 96-well plates (5000 cells/well) and left overnight to form a semi-confluent monolayer. […] DMSO (100 µl/well) was added to dissolve the formazan crystals with shaking for 10 min after which the absorbance was read at 590 nm against no cell blanks on a FLuo Star Optima microplate reader (BMG Technologies, Germany). Cell proliferation was calculated comparing the OD values of the DMSO control wells and those of the samples represented as % proliferation to the control.
The in vitro anti-proliferative activity of the newly synthesized spirooxindoles 6a–p was examined against TNBC MDA-MB-231 cells. This assay was performed utilizing the 3–(4,5-dimethylthiazol-2-yl)-2,5-diphenyltetrazolium bromide (MTT) colorimetric assay as described by Mosmann[18]. Adriamycin was included in this assay as a reference drug.

T1 sequence (P00533 25-1210): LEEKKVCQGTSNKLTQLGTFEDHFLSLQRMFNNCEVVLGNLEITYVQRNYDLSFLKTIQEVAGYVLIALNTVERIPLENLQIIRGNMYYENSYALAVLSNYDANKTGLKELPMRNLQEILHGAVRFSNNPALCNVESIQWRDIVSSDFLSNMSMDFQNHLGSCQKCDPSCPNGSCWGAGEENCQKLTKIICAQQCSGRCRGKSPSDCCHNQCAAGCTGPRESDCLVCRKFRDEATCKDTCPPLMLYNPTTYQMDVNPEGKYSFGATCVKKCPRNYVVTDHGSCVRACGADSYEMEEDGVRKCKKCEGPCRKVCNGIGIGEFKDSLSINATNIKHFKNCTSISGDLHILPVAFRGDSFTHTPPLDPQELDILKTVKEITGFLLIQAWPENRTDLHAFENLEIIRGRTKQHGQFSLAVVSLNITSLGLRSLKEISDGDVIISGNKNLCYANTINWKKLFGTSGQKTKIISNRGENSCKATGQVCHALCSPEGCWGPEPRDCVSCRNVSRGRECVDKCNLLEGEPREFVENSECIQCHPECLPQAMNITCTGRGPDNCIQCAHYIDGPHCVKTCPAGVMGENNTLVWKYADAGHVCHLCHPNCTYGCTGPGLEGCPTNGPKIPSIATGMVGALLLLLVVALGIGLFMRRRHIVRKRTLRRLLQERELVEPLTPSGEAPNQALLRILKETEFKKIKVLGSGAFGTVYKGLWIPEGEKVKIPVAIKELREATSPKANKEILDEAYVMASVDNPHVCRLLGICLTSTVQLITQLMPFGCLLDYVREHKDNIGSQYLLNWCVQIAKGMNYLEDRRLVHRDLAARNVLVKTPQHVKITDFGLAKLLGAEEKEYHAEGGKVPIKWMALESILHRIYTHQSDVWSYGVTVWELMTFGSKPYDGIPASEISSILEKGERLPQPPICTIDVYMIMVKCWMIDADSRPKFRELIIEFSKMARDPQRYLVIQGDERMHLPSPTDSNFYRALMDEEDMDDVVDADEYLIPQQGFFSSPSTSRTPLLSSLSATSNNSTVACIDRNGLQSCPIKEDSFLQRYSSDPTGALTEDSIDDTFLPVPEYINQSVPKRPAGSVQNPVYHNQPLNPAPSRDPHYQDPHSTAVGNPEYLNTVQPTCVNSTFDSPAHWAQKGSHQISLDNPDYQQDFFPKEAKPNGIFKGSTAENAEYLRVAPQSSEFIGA

CC(=O)n1c(C)nc2c(c1=O)[C@@]1(C(=O)Nc3c(F)cccc31)c1c(c3cc(F)ccc3oc1=O)O2 [derivative (ii)]
IC50 (MDA cell lines): 6.9 µM

CC(C)(C)C1=NN(c2ccccc2)C2(C(=O)Nc3c(Cl)cccc32)C1c1ccccc1 (centres unmarked) [compound (iii)]
IC50 [1]: 6.4 µM
IC50 (MCF-7): 8.6 µM

CC(C)=CC1N2C(=O)C3CCCN3C(=O)C2=CC12C(=O)Nc1ccccc12 (centres unmarked) [Spirotryprostatins B]
IC50 (tsFT210 cells): 14 µM

N#CC1=C(c2ccccc2)Nc2c(c(-c3cccs3)nn2-c2ccccc2)C12C(=O)Nc1ccc(Cl)cc12 (centres unmarked) [Compound 6e, 5-Chloro-2-oxo-1',6'-diphenyl-3'-(thiophen-2-yl)-1',7'-dihydrospiro[indoline-3,4'-pyrazolo[3,4-b]pyridine]-5'-carbonitrile]
Annexin V-FITC positive apoptotic cells, folds compared to control (MDA-MB-231 cells [2]): about 32.8 folds
Percent of annexin V-FITC positive apoptotic cells (UR + LR) (MDA-MB-231 cells [2]; control 1.34%): 44%
Bcl-2 (Bcl-2): 0.7449 ng/mL
Bcl-2, number of folds of control (Bcl-2): 0.276 folds
IC50 (EGFR): 0.15 ± 0.02 µM
Cells in G2-M phase (MDA-MB-231 cells [3]): 19.1%
Change in the S phase (MDA-MB-231 cells [3]): no significant change
Bax (Bax): 353.7 pg/mL
Bax, number of folds of control (Bax): 442.1 folds
IC50 (WI-38 cells): 43.2 µM
Caspase-3 (caspase-3): 0.4058 ng/mL
Caspase-3, number of folds of control (caspase-3): ~36.5 folds
IC50 (MDA-MB-231 cells [4]): 6.4 µM
